Assay results from patent US5340818A, “Methods and compositions for inhibiting tumor cell growth” (priority 1993, dated 1994).
pIC50: −log10 of the molar value.

Tests used:
[1] = system: L1210/0 cells; experiment: Cross-resistance studies: growth inhibition of doxorubicin-sensitive L1210/0 cells; format: cell-based; conditions: L1210/0 (doxorubicin sensitive)
[2] = system: L1210/Dx cells; experiment: Cross-resistance studies: growth inhibition of doxorubicin-resistant L1210/Dx cells; format: cell-based

For COc1cc(NS(C)(=O)=O)ccc1Nc1c2ccccc2nc2ccccc12 [m-AMSA], the pIC50 [1] was 9.00 to 10.00, the “(IC50) 0/(IC50) Dx” value ([2]; L1210/0 and L1210/Dx) was 61-610 and the pIC50 ([2]; Mus musculus, L1210/Dx (doxorubicin resistant)) was 7.21.
